According to patent US11299501B2 (BRISTOL-MYERS SQUIBB COMPANY, priority 2017, dated 2022):

Legend:
Type in all cases: cell-based
[1] = molecular target: T1, human TLR7 (Homo sapiens, UniProt Q9NYK1); test: TLR7 inhibition reporter assay (HEK-Blue SEAP); conditions: cells overexpressing human TLR7, SEAP reporter, stimulated with gardiquimod 7.5 μM, 22 hour incubation
T1 construct: host or cells: HEK-Blue cells
T1 sequence (Q9NYK1 27-1049): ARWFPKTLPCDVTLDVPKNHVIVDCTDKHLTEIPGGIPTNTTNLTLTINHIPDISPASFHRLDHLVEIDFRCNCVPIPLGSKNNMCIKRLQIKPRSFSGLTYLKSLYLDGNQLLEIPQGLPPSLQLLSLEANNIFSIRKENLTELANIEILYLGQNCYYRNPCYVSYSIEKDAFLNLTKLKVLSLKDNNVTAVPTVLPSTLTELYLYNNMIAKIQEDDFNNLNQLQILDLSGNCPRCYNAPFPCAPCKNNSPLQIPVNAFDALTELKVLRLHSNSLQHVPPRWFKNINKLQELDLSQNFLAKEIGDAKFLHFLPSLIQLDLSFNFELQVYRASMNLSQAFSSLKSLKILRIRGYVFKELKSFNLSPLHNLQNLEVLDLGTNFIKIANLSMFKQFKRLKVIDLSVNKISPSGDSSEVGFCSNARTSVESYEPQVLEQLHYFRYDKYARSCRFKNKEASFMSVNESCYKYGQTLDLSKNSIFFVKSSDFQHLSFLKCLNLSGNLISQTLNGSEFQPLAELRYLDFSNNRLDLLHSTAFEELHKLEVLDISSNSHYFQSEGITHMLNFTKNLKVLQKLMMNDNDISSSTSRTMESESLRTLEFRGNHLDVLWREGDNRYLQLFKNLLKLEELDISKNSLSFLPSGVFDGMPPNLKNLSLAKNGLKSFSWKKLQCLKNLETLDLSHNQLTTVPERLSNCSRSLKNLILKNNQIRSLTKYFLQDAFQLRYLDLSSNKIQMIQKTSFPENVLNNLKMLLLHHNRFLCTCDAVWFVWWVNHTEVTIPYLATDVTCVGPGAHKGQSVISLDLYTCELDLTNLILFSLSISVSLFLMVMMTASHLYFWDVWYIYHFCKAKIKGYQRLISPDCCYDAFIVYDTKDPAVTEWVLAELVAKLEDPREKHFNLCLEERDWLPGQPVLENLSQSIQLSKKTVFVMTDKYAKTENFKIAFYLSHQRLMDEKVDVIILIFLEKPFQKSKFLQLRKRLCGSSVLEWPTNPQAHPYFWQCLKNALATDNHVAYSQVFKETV
Method in brief: (§1)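 HEK-Blue cells expressing human TLR7, TLR8 or TLR9 with NF-κB/AP-1-driven SEAP reporter pre-treated 30 min at room temperature with compound (0.05 nM–50 μM), then stimulated with gardiquimod 7.5 μM (TLR7), R848 15.9 μM (TLR8) or ODN2006 5 nM (TLR9). SEAP read after 22 h at 37 °C; % inhibition relative to agonist+DMSO and reference-inhibitor wells.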

[2] = molecular target: T2, human TLR9 (Homo sapiens, UniProt Q9NR96); test: TLR9 inhibition reporter assay (HEK-Blue SEAP); conditions: cells overexpressing human TLR9, SEAP reporter, stimulated with ODN2006 5 nM, 22 hour incubation
T2 construct: host or cells: HEK-Blue cells
T2 sequence (Q9NR96 26-1032): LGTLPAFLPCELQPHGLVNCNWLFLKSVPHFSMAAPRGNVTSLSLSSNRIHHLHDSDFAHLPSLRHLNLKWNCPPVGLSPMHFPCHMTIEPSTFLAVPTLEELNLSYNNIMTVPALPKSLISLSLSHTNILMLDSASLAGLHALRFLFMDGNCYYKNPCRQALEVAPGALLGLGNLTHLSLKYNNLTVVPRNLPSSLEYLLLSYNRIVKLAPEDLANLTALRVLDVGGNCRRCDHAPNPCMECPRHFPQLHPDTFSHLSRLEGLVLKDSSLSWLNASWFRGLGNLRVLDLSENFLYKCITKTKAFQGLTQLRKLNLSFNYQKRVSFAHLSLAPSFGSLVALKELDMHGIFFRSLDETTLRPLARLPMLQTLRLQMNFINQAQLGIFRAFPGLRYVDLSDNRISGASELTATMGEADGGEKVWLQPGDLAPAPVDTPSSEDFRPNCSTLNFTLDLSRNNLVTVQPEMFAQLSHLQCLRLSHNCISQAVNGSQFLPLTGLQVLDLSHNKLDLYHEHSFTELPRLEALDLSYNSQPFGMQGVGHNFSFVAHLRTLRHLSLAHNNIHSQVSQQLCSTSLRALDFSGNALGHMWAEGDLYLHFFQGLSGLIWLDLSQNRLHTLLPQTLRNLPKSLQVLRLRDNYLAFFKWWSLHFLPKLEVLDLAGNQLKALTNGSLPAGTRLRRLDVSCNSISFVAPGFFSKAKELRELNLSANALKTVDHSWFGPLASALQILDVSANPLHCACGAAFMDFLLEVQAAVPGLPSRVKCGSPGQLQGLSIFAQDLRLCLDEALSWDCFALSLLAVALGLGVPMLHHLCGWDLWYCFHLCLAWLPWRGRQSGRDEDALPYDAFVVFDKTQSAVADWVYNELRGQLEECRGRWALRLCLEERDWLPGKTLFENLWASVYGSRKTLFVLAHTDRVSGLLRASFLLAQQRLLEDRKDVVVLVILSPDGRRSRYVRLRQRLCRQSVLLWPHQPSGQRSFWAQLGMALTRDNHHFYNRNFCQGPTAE
Method in brief: as §1

[3] = molecular target: T3, human TLR8 (Homo sapiens, UniProt Q9NR97); test: TLR8 inhibition reporter assay (HEK-Blue SEAP); conditions: cells overexpressing human TLR8, SEAP reporter, stimulated with R848 15.9 μM, 22 hour incubation
T3 construct: host or cells: HEK-Blue cells
T3 sequence (Q9NR97 27-1041): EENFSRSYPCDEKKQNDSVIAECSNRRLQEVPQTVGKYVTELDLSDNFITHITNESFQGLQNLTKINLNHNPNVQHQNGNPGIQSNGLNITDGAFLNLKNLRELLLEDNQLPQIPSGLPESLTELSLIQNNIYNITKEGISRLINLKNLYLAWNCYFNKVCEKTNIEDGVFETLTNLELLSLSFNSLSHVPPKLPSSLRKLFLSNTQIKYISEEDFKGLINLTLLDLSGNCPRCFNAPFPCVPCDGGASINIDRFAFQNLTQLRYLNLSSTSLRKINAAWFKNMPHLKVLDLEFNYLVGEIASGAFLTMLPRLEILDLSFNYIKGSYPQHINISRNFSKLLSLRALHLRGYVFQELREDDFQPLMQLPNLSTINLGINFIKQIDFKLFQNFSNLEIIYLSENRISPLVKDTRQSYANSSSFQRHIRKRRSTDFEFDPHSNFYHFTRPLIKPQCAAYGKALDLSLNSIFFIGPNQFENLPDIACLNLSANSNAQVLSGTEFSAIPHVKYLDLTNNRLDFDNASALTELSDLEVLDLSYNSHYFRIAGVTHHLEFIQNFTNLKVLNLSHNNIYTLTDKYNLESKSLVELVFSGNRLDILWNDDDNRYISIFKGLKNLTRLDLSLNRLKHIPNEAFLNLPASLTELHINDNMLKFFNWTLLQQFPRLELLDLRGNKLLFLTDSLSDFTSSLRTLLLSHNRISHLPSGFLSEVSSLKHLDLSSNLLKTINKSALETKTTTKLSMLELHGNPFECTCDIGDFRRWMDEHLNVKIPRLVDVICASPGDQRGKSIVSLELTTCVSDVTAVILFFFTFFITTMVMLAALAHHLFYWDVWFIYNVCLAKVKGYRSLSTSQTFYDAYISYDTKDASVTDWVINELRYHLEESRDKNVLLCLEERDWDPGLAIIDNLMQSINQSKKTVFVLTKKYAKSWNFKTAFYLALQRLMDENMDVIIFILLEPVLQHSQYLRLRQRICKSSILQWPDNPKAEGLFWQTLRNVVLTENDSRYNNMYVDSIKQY
Method in brief: as §1

Compound | IC50 [1] [nM] | IC50 [2] [nM] | IC50 [3] [nM]
CCc1c(-c2ccc(OC)c(OC)c2)[nH]c2cnc(-c3nnc(CCCN(C)C)o3)nc12 [Example 37, 3-(5-(6-(3,4-dimethoxyphenyl)-7-ethyl-5H-pyrrolo[3,2-d]pyrimidin-2-yl)-1,3,4-oxadiazol-2-yl)-N,N-dimethylpropan-1-amine] | 1000 to 50000 | 1000 to 50000 | 100 to 1000
CCc1c(-c2ccc(OC)c(OC)c2)[nH]c2cnc(-c3nnc(CCNC)o3)nc12 [Example 38, 2-(5-(6-(3,4-dimethoxyphenyl)-7-ethyl-5H-pyrrolo[3,2-d]pyrimidin-2-yl)-1,3,4-oxadiazol-2-yl)-N-methylethan-1-amine] | 1000 to 50000 | 1000 to 50000 | 100 to 1000
CCc1c(-c2ccc(OC)c(OC)c2)[nH]c2cnc(-c3nnc(C(C)(C)N)o3)nc12 [Example 39, 2-(5-(6-(3,4-dimethoxyphenyl)-7-ethyl-5H-pyrrolo[3,2-d]pyrimidin-2-yl)-1,3,4-oxadiazol-2-yl)propan-2-amine] | 1000 to 50000 | > 50000 | 1000 to 50000
CCc1c(-c2ccc(OC)c(OC)c2)[nH]c2cnc(-c3nnc([C@H]4CCCNC4)o3)nc12 [Example 40, (S)-2-(6-(3,4-dimethoxyphenyl)-7-ethyl-5H-pyrrolo[3,2-d]pyrimidin-2-yl)-5-(piperidin-3-yl)-1,3,4-oxadiazole] | 100 to 1000 | 100 to 1000 | 100 to 1000
CCc1c(-c2ccc(OC)c(OC)c2)[nH]c2cnc(-c3nnc([C@@H]4CCNC4)o3)nc12 [Example 41, (R)-2-(6-(3,4-dimethoxyphenyl)-7-ethyl-5H-pyrrolo[3,2-d]pyrimidin-2-yl)-5-(pyrrolidin-3-yl)-1,3,4-oxadiazole] | 1000 to 50000 | 1000 to 50000 | 1000 to 50000
CCc1c(-c2ccc(OC)c(OC)c2)[nH]c2cnc(-c3nnc(CNC)o3)nc12 [Example 42, 1-(5-(6-(3,4-dimethoxyphenyl)-7-ethyl-5H-pyrrolo[3,2-d]pyrimidin-2-yl)-1,3,4-oxadiazol-2-yl)-N-methylmethanamine] | 1000 to 50000 | 1000 to 50000 | 100 to 1000
CCc1c(-c2ccc(OC)c(OC)c2)[nH]c2cnc(-c3nnc([C@@H]4CCCNC4)o3)nc12 [Example 43, (R)-2-(6-(3,4-dimethoxyphenyl)-7-ethyl-5H-pyrrolo[3,2-d]pyrimidin-2-yl)-5-(piperidin-3-yl)-1,3,4-oxadiazole] | 1000 to 50000 | 1000 to 50000 | 100 to 1000
CCc1c(-c2ccc(OC)c(OC)c2)[nH]c2cnc(-c3nnc([C@H]4CCNC4)o3)nc12 [Example 44, (S)-2-(6-(3,4-dimethoxyphenyl)-7-ethyl-5H-pyrrolo[3,2-d]pyrimidin-2-yl)-5-(pyrrolidin-3-yl)-1,3,4-oxadiazole] | 1000 to 50000 | 1000 to 50000 | 1000 to 50000
CCc1c(-c2ccc(OC)c(OC)c2)[nH]c2cnc(-c3nnc(C[C@@H]4CCCN4)o3)nc12 [Example 45, (S)-2-(6-(3,4-dimethoxyphenyl)-7-ethyl-5H-pyrroIo[3,2-d]pyrimidin-2-yl)-5-(pyrrolidin-2-ylmethyl)-1,3,4-oxadiazole] | 1000 to 50000 | 1000 to 50000 | 1000 to 50000
CCc1c(-c2ccc(OC)c(OC)c2)[nH]c2cnc(-c3nnc(C[C@@H]4CCCCN4)o3)nc12 [Example 46, (S)-2-(6-(3,4-dimethoxyphenyl)-7-ethyl-5H-pyrrolo[3,2-d]pyrimidin-2-yl)-5-(piperidin-2-ylmethyl)-1,3,4-oxadiazole] | 1000 to 50000 | 1000 to 50000 | 100 to 1000
CCc1c(-c2ccc(OC)c(OC)c2)[nH]c2cnc(-c3nnc(C[C@H]4CCCN4)o3)nc12 [Example 47, (R)-2-(6-(3,4-dimethoxyphenyl)-7-ethyl-5H-pyrrolo[3,2-d]pyrimidin-2-yl)-5-(pyrrolidin-2-ylmethyl)-1,3,4-oxadiazole] | 1000 to 50000 | 1000 to 50000 | 100 to 1000
CCc1c(-c2ccc(OC)c(OC)c2)[nH]c2cnc(-c3nnc(CCN(C)C)o3)nc12 [Example 48, 2-(5-(6-(3,4-dimethoxyphenyl)-7-ethyl-5H-pyrrolo[3,2-d]pyrimidin-2-yl)-1,3,4-oxadiazol-2-yl)-N,N-dimethylethan-1-amine] | 1000 to 50000 | 1000 to 50000 | 100 to 1000
CCc1c(-c2ccc(OC)c(OC)c2)[nH]c2cnc(C3CCN(CC(=O)N(C)C)CC3)nc12 [Example 49] | 100 to 1000 | 1000 to 50000 | < 100
CCc1c(-c2ccc(OC)c(OC)c2)[nH]c2cnc(C3CCN(CC(=O)NC)CC3)nc12 [Example 50] | 100 to 1000 | 1000 to 50000 | 100 to 1000
CCc1c(-c2ccc(OC)c(OC)c2)[nH]c2cnc(C3CCN(Cc4c[nH]cn4)CC3)nc12 [Example 51, 2-(1-((1H-imidazol-4-yl)methyl)piperidin-4-yl)-6-(3,4-dimethoxyphenyl)-7-ethyl-5H-pyrrolo[3,2-d]pyrimidine] | 100 to 1000 | 1000 to 50000 | 100 to 1000
